{"source": "patent US12263155B2", "about": "“Combinations of monoamine oxidase inhibitors and serotonin receptor agonists and their therapeutic use” (Remedi, Inc., priority 2022, dated 2025)", "key": {"rat liver MAO-A": {"target": "T1, rat liver MAO-A (Rattus norvegicus, UniProt P21396)", "T1 construct": "from tissue; host or cells: rat liver", "T1 sequence (P21396 1-526)": "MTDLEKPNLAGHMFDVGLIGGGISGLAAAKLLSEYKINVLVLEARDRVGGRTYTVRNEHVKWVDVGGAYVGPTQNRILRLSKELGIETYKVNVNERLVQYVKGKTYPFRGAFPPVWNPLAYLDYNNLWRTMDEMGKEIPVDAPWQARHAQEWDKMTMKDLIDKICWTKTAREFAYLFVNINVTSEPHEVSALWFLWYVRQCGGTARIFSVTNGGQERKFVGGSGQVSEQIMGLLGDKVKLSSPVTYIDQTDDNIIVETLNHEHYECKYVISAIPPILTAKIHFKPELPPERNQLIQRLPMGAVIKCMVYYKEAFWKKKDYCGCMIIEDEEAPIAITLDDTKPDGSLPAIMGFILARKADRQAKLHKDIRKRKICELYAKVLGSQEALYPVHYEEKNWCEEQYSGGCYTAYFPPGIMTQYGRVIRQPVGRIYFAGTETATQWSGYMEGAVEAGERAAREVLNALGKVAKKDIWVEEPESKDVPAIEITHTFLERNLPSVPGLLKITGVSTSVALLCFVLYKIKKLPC", "test": "In vitro inhibition of rat liver MAO-A", "format": "biochemical", "description": "[…] The P2 fraction was prepared and was stored frozen until being thawed for use on the day of assay. Final concentrations of 50 μM [^14C]-serotonin (5-HT) and 10 μM [^14C]-phenylethylamine (PEA) were employed as specific substrates for MAO-A and MAO-B, respectively. Test compound inhibition was based on competition for oxidation of these radio-labeled substrates. MAO-A assay specificity was enhanced by inclusion of 0.1 μM deprenyl to prevent substrate oxidation by MAO-B. Likewise, MAO-B assays included 0.1 μM clorgyline to block MAO-A activity. […] Inhibition of enzymatic activities was expressed as IC50 and as the Ki, which was calculated using the Cheng-Prusoff equation."}, "[1]": {"test": "Plasma and brain CX157 concentrations after oral dosing in rats", "conditions": "rat; for Kp at 2 h / Kp at 4 h / Kp at 8 h / Kp at 18 h / Kp at 24 h / concentration at 0 h / concentration at 2 h / concentration at 4 h / concentration at 8 h / concentration at 18 h / concentration at 24 h: male, Sprague-Dawley, po"}, "[2]": {"conditions": "brain and plasma, 5 mg/kg, mean brain/plasma ratio of CX157 concentrations, 5 mg/kg oral"}, "[3]": {"conditions": "brain and plasma, 10 mg/kg, mean brain/plasma ratio of CX157 concentrations, 10 mg/kg oral"}, "[4]": {"conditions": "brain/plasma, 1 mg/kg, mean brain/plasma ratio of CX157 concentrations, 1 mg/kg oral"}}, "data": [{"compound": "O=S1(=O)c2ccc(F)cc2Oc2cc(OCC(F)(F)F)ccc21", "note": "[CX157, 3-fluoro-7(2,2,2-trifluorethoxy)phenoxathiine-10,10-dioxide]", "values": [{"measurement": "Ki for CX157/Ki for RO-41-1049", "setting": "rat liver MAO-A; Liver MAO-A", "value": 0.126}, {"measurement": "IC50", "setting": "rat liver MAO-A; rat liver, 50 μM [14C]-5-HT", "value": 2.22, "unit": "nM"}, {"measurement": "Ki", "setting": "rat liver MAO-A; rat liver, Cheng-Prusoff", "value": 0.91, "unit": "nM"}, {"measurement": "Kp at 2 h", "setting": "[1]; [2]", "value": 2.5}, {"measurement": "Kp at 4 h", "setting": "[1]; brain and plasma, 5 mg/kg, mean brain/plasma ratio of CX157 concentrations, 5 mg/kg oral, 4 h", "value": 2.2}, {"measurement": "Kp at 8 h", "setting": "[1]; [2]", "value": 5}, {"measurement": "Kp at 18 h", "setting": "[1]; [2]", "value": 3.7}, {"measurement": "Kp at 24 h", "setting": "[1]; [2]", "value": 7.4}, {"measurement": "Kp at 2 h", "setting": "[1]; [3]", "value": 3.1}, {"measurement": "Kp at 4 h", "setting": "[1]; brain and plasma, 10 mg/kg, mean brain/plasma ratio of CX157 concentrations, 10 mg/kg oral, 4 h", "value": 1.9}, {"measurement": "Kp at 8 h", "setting": "[1]; [3]", "value": 2.2}, {"measurement": "Kp at 18 h", "setting": "[1]; [3]", "value": 7.2}, {"measurement": "Kp at 24 h", "setting": "[1]; [3]", "value": 8.5}, {"measurement": "concentration at 0 h", "setting": "[1]; brain, 1 mg/kg", "value": 0, "unit": "ng/mL"}, {"measurement": "concentration at 2 h", "setting": "[1]; brain, 1 mg/kg", "value": 103, "unit": "ng/mL"}, {"measurement": "concentration at 4 h", "setting": "[1]; brain, 1 mg/kg", "value": 71.7, "unit": "ng/mL"}, {"measurement": "concentration at 8 h", "setting": "[1]; brain, 1 mg/kg", "value": 76.5, "unit": "ng/mL"}, {"measurement": "concentration at 18 h", "setting": "[1]; brain, 1 mg/kg", "value": 17.3, "unit": "ng/mL"}, {"measurement": "concentration at 24 h", "setting": "[1]; brain, 1 mg/kg", "value": 13.2, "unit": "ng/mL"}, {"measurement": "concentration at 0 h", "setting": "[1]; brain, 5 mg/kg", "value": 0, "unit": "ng/mL"}, {"measurement": "concentration at 2 h", "setting": "[1]; brain, 5 mg/kg", "value": 447, "unit": "ng/mL"}, {"measurement": "concentration at 4 h", "setting": "[1]; brain, 5 mg/kg", "value": 386, "unit": "ng/mL"}, {"measurement": "concentration at 8 h", "setting": "[1]; brain, 5 mg/kg", "value": 535, "unit": "ng/mL"}, {"measurement": "concentration at 18 h", "setting": "[1]; brain, 5 mg/kg", "value": 140, "unit": "ng/mL"}, {"measurement": "concentration at 24 h", "setting": "[1]; brain, 5 mg/kg", "value": 85.8, "unit": "ng/mL"}, {"measurement": "concentration at 0 h", "setting": "[1]; brain, 10 mg/kg", "value": 0, "unit": "ng/mL"}, {"measurement": "concentration at 2 h", "setting": "[1]; brain, 10 mg/kg", "value": 387, "unit": "ng/mL"}, {"measurement": "concentration at 4 h", "setting": "[1]; brain, 10 mg/kg", "value": 513, "unit": "ng/mL"}, {"measurement": "concentration at 8 h", "setting": "[1]; brain, 10 mg/kg", "value": 540, "unit": "ng/mL"}, {"measurement": "concentration at 18 h", "setting": "[1]; brain, 10 mg/kg", "value": 56.6, "unit": "ng/mL"}, {"measurement": "concentration at 24 h", "setting": "[1]; brain, 10 mg/kg", "value": 86.6, "unit": "ng/mL"}, {"measurement": "Kp at 4 h", "setting": "[1]; brain/plasma, 1 mg/kg, brain concentration higher than plasma concentration, e.g. 4 hours after a 1 mg/kg oral dose", "value": "≤ 10"}, {"measurement": "Kp at 2 h", "setting": "[1]; [4]", "value": 7.4}, {"measurement": "Kp at 4 h", "setting": "[1]; brain/plasma, 1 mg/kg, mean brain/plasma ratio of CX157 concentrations, 1 mg/kg oral, 4 h", "value": 10.3}, {"measurement": "Kp at 8 h", "setting": "[1]; [4]", "value": 6.5}, {"measurement": "Kp at 18 h", "setting": "[1]; [4]", "value": 5.7}, {"measurement": "Kp at 24 h", "setting": "[1]; [4]", "value": 4.8}, {"measurement": "concentration at 0 h", "setting": "[1]; plasma, 1 mg/kg", "value": 0, "unit": "ng/mL"}, {"measurement": "concentration at 2 h", "setting": "[1]; plasma, 1 mg/kg", "value": 20, "unit": "ng/mL"}, {"measurement": "concentration at 4 h", "setting": "[1]; plasma, 1 mg/kg", "value": 9.9, "unit": "ng/mL"}, {"measurement": "concentration at 8 h", "setting": "[1]; plasma, 1 mg/kg", "value": 13.4, "unit": "ng/mL"}, {"measurement": "concentration at 18 h", "setting": "[1]; plasma, 1 mg/kg", "value": 4.5, "unit": "ng/mL"}, {"measurement": "concentration at 24 h", "setting": "[1]; plasma, 1 mg/kg", "value": 3.2, "unit": "ng/mL"}, {"measurement": "concentration at 0 h", "setting": "[1]; plasma, 5 mg/kg", "value": 0, "unit": "ng/mL"}, {"measurement": "concentration at 2 h", "setting": "[1]; plasma, 5 mg/kg", "value": 184, "unit": "ng/mL"}, {"measurement": "concentration at 4 h", "setting": "[1]; plasma, 5 mg/kg", "value": 214, "unit": "ng/mL"}, {"measurement": "concentration at 8 h", "setting": "[1]; plasma, 5 mg/kg", "value": 189, "unit": "ng/mL"}, {"measurement": "concentration at 18 h", "setting": "[1]; plasma, 5 mg/kg", "value": 26.8, "unit": "ng/mL"}, {"measurement": "concentration at 24 h", "setting": "[1]; plasma, 5 mg/kg", "value": 14.3, "unit": "ng/mL"}, {"measurement": "concentration at 0 h", "setting": "[1]; plasma, 10 mg/kg", "value": 0, "unit": "ng/mL"}, {"measurement": "concentration at 2 h", "setting": "[1]; plasma, 10 mg/kg", "value": 158, "unit": "ng/mL"}, {"measurement": "concentration at 4 h", "setting": "[1]; plasma, 10 mg/kg", "value": 412, "unit": "ng/mL"}, {"measurement": "concentration at 8 h", "setting": "[1]; plasma, 10 mg/kg", "value": 257, "unit": "ng/mL"}, {"measurement": "concentration at 18 h", "setting": "[1]; plasma, 10 mg/kg", "value": 8.5, "unit": "ng/mL"}, {"measurement": "concentration at 24 h", "setting": "[1]; plasma, 10 mg/kg", "value": 5.4, "unit": "ng/mL"}, {"measurement": "blood-brain-barrier penetration", "setting": "[1]; oral", "value": "penetrated the blood-brain-barrier"}, {"measurement": "time of maximum plasma levels", "setting": "[1]; oral 1, 5, 10 mg/kg", "value": "two to four hours"}, {"measurement": "pharmacokinetic half-life in brain versus plasma", "setting": "[1]; oral, particularly 10 mg/kg", "value": "longer pharmacokinetic half-life in the brain than in plasma"}]}]}
